Several values for one entry are separate records, joined by “and”; a condition that tells them apart may be missing. Equal entries are not always repeated. Entries after “also recorded” stand apart in the source; their conditions may differ. Where two headings read alike, the source gives them in different places.
Tests used:
[1] = system: Caco-2 TC7 cells; experiment: Uptake and apical-to-basolateral transport by Caco-2 TC7 cell monolayers of diluted aqueous fractions from in vitro digestions; assay type: in vitro ADME, human; settings: for Recovery in the cytosolic compartment of the cells or in the basolateral media (crossing of Caco-2 monolayers, native form): 6-h incubation; for Decrease of amount in the apical media: 6-h incubation on cell monolayers; for Amount found in the cytosolic compartment of Caco-2 cells, percentage of the initial amount at the apical side: 6 h incubation; for Metabolism in the intestinal cells: Caco-2 cells, inferred from total recovery; for FA at the basolateral side as percentage (CA equivalent) of the initial CA amount in the apical side: 6 h, FA is the CA metabolite
Description: (§1) Caco-2 TC7 cells were grown in DMEM supplemented with 16% (v/v) fetal bovine serum, 1% (v/v) non-essential amino-acids, and 1% (v/v) antibiotics (complete medium), as previously described. Cells were then seeded at a density of 15 000 cells/well, grown on transwell membrane (six-well plate, […] polycarbonate membrane; Becton Dickinson) and incubated in humidified atmosphere of 5% CO2 and 95% air at 37 °C during 21 days to obtain confluent and differentiated cell monolayers.
(§2) The cytotoxicity on Caco-2 cells of the aqueous fractions from in vitro digestions was first assessed to determine the suitable dilution required before adding the aqueous fractions to the apical side of cell monolayers. […] To avoid any interference with DMEM or serum components, the aqueous fractions were diluted in HBSS. Caco-2 cells also received HBSS in both chambers 12 h before the experiments. At the beginning of each experiment, cells were rinsed twice with 1 mL of PBS. Then, 1 mL of diluted aqueous fraction was added to the apical side and 2 mL of HBSS were added at the basolateral side. After an incubation period (2, 4, or 6 h) at 37 °C, both apical and basolateral media were harvested. Cells were then rinsed twice with 1mL of PBS and scrapped in 0.5 mL of iced-cold PBS. All analyses were run in quadruplicate and samples were stored at −80 °C until further analysis.
(§3) Gallic acid was chosen as internal standard as it was not present in the extract. Phenolic compounds were extracted from salivary, gastric and duodenal samples as follows: 0.3 mL of ethanol and 0.2 mL of n-hexane were added to 0.2 mL of sample and the mixture was stirred for 10 min using a vortex blender at maximal speed. After centrifugation (3560 g for 10 min at 4 °C), the lower phase was collected. The solid bottom was re-extracted with 0.3 mL of ethanol and vortexed for 10 min. The second ethanol phase recovered was pooled to the previously collected phase, and then dried using a Speed-Vac®. The dried extracts were dissolved in 200 µL of water. Apical media were directly injected. To concentrate them, basolateral media (1900 µL) were dried using a Speed-Vac®, and the dried residues were dissolved into 80 µL of water. All samples were stored at −80 °C before analysis.
(§4) Following the procedure by Gallardo et al. (2016), 50 µL of internal standard were added to harvested cells (in 500 µL PBS). Samples were then sonicated for 10 min at room temperature and centrifuged (10,000 g for 10 min at 4 °C). Supernatants were collected and evaporated to dryness. The dried residues were dissolved in 50 µL of water and stored at −80 °C before analysis.
(§5) All samples were analyzed by UHPLC-DAD-MS using an Acquity UPLC® system that was linked to both a diode-array detector and a Bruker Daltonics HCT Ultra Ion Traps mass spectrometer equipped with an Electron Spray Ionization (ESI) source operating in negative ion mode. The separation was performed on an Acquity C18 BEH column (50 × 2.1 mm i.d., 1.7 µm) kept at 35 °C. The solvents were (A) water/formic acid (99.5/0.5) and (B) acetonitrile. The proportions of solvent B used were: 0–10 min: 1–20%, 10–12 min: 20–30%, 12–14 min: 30–100%. Along the three steps of the gradient, the flow rate was 0.30, 0.35, and 0.40 mL/min. The injection volume was 1 μL for digestion and apical medium samples, and 10 µL for cells and basolateral samples. Chromatograms were acquired at 280 nm. The spectroscopic detection was performed in the range 200–800 nm with a resolution of 1.2 nm. The concentrations of phenolic compounds Tyr, CA, and p-Cm were estimated from calibration curves (peak area vs. concentration) with R² values greater than 0.99 [26].
(§6) Results were expressed as means ± standard deviations. Differences between means were assessed using ANOVA followed by the post-hoc Tukey test for parametric data. P values under 0.05 were considered to be significant. […]

[2] = In vitro digestion model: bioaccessibility of alperujo phenolic compounds added to a test meal (percentage found in the aqueous phase of the digesta); assay type: in vitro ADME; settings: for recovery: pig
Description: The in vitro digestion was carried out as previously described. […] The mixture was dispersed with Ultra-Turrax® (Ika) and artificial saliva (2.5 mL, pH 7) was added to the mixture. The sample was incubated for 10 min at 37 °C in a shaking incubator. The pH of the gastric medium was adjusted to 4.00 ± 0.02 with 1 M HCl. Then, porcine pepsin (2 mL, 40 mg/mL in 0.1 M HCl) was added and the homogenate was incubated at 37 °C in a shaking incubator for 30 min simulating the gastric step. The pH of the mixture was raised to 6.00 ± 0.02 with 0.9 M NaHCO3 and 13 mL of a mixture of porcine bile extract (39.08 mg/mL) and pancreatin (2.08 mg/mL) in 0.1 M trisodium citrate (pH 6) were added. Samples were incubated in a shaking incubator at 37 °C for 30 min to complete the digestion process. The final mixture representing the digesta was centrifuged (2500 g for 1 h at 10 °C) to separate the aqueous fraction. […] All analyses were run in quadruplicate. Aliquots from salivary, gastric, and duodenal steps were frozen at −80 °C until use. […] After centrifugation (3560 g for 10 min at 4 °C), the lower phase was collected. The solid bottom was re-extracted with 0.3 mL of ethanol and vortexed for 10 min. The second ethanol phase recovered was pooled to the previously collected phase, and then dried using a Speed-Vac®. The dried extracts were dissolved in 200 µL of water. Apical media were directly injected. […] All samples were stored at −80 °C before analysis. All samples were analyzed by UHPLC-DAD-MS using an Acquity UPLC® system that was linked to both a diode-array detector and a Bruker Daltonics HCT Ultra Ion Traps mass spectrometer equipped with an Electron Spray Ionization (ESI) source operating in negative ion mode. The separation was performed on an Acquity C18 BEH column (50 × 2.1 mm i.d., 1.7 µm) kept at 35 °C. The solvents were (A) water/formic acid (99.5/0.5) and (B) acetonitrile. […] Along the three steps of the gradient, the flow rate was 0.30, 0.35, and 0.40 mL/min. […] Chromatograms were acquired at 280 nm. The spectroscopic detection was performed in the range 200–800 nm with a resolution of 1.2 nm.

[3] = system: Caco-2 cells; experiment: Overall in vitro bioavailability: basolateral amount in Caco-2 cells relative to the initial amount in the test meal before in vitro digestion; assay type: in vitro ADME, human; settings: mean ± SD (n = 4)
Description: The in vitro digestion was carried out as previously described. […] The mixture was dispersed with Ultra-Turrax® (Ika) and artificial saliva (2.5 mL, pH 7) was added to the mixture. The sample was incubated for 10 min at 37 °C in a shaking incubator. […] Then, porcine pepsin (2 mL, 40 mg/mL in 0.1 M HCl) was added and the homogenate was incubated at 37 °C in a shaking incubator for 30 min simulating the gastric step. […] Samples were incubated in a shaking incubator at 37 °C for 30 min to complete the digestion process. The final mixture representing the digesta was centrifuged (2500 g for 1 h at 10 °C) to separate the aqueous fraction. […] The cytotoxicity on Caco-2 cells of the aqueous fractions from in vitro digestions was first assessed to determine the suitable dilution required before adding the aqueous fractions to the apical side of cell monolayers. […] To avoid any interference with DMEM or serum components, the aqueous fractions were diluted in HBSS. Caco-2 cells also received HBSS in both chambers 12 h before the experiments. At the beginning of each experiment, cells were rinsed twice with 1 mL of PBS. […] Cells were then rinsed twice with 1mL of PBS and scrapped in 0.5 mL of iced-cold PBS. All analyses were run in quadruplicate and samples were stored at −80 °C until further analysis. Results were expressed as means ± standard deviations. Differences between means were assessed using ANOVA followed by the post-hoc Tukey test for parametric data. […] Two parameters were assessed to express the bioavailability: a) the ratio between the mass of phenolic compounds recovered at the basolateral side and the initial mass added to the apical side, b) the ratio between the mass of phenolic compounds recovered at the basolateral side and the initial mass added to the meal.

[4] = Uptake and apical-to-basolateral transport by Caco-2 TC7 cell monolayers of diluted aqueous fractions from in vitro digestions; assay type: in vitro ADME, human; settings: human; for recovery at 6 h: Caco-2, 6 h; for Basolateral amount as percentage of initial apical amount (Caco-2 transport): whether from alperujo or alperujo-CD, read-out: Bioavailability (basolateral amount compared with initial apical amount)
Description: as §1, §2, §3, §4, §5, §6

[5] = set-up: method as in PMID 27355793; settings: Tyr from olives; cited from earlier work
[6] = set-up: method as in PMID 21494673; settings: cited from earlier work
[7] = pH 6, in vitro digestion with test meal, average of alperujo and alperujo-CD, mean ± SD, read-out: Bioaccessibility (recovery in the final aqueous phase at the duodenal step)
[8] = from alperujo-CD, mean ± SD (n = 4), read-out: Bioavailability in Caco-2 cells (recovery on the basolateral side) as percentage of initial apical amount
[9] = from alperujo, mean ± SD (n = 4), read-out: Bioavailability in Caco-2 cells (recovery on the basolateral side) as percentage of initial apical amount
[10] = read-out: Total recovery in the three compartments (apical, basolateral, cells)
[11] = pH 6, in vitro digestion, relative to the initial quantity, read-out: Recovery in the digesta

hydroxytyrosol-O-glucoside [HT-Glc]
Recovery in the cytosolic compartment of the cells or in the basolateral media (crossing of Caco-2 monolayers, native form) [1]: neither HT-Glc nor CA was recovered; also recorded: no HT-Glc was recovered | Decrease of amount in the apical media ([1]; from alperujo): about 10% | Recovery in the cytosolic compartment of the cells or in the basolateral media (crossing of Caco-2 monolayers, native form) ([1]; listed as Hydroxytyrosol-O-glucoside): did not cross Caco-2 cell monolayers | Bioaccessibility (recovery in the final aqueous phase at the duodenal step) ([2]; in vitro digestion with test meal, average of alperujo and alperujo-CD, mean ± SD): 73.2 ± 4.5%

O=C(O)/C=C/c1ccc(O)c(O)c1 [CA, caffeic acid]
Recovery in the cytosolic compartment of the cells or in the basolateral media (crossing of Caco-2 monolayers, native form) [1]: neither HT-Glc nor CA was recovered; also recorded: not recovered; also recorded: not found bioavailable in its native form | Decrease of amount in the apical media ([1]; from alperujo): ~18% | Recovery in the cytosolic compartment of the cells or in the basolateral media (crossing of Caco-2 monolayers, native form) ([1]; listed as caffeic): did not cross Caco-2 cell monolayers | recovery [2, 7]: ~64.9%

OCCc1ccc(O)cc1 [Tyr, tyrosol]
Bioavailability in Caco-2 cells as percentage of initial amount in the test meal before in vitro digestion (bioaccessibility × absorption by Caco-2 cells) ([3]; from alperujo-CD): 16.8 ± 0.5 ^a % | Bioavailability in Caco-2 cells as percentage of initial amount in the test meal before in vitro digestion (bioaccessibility × absorption by Caco-2 cells) ([3]; from alperujo-CD, listed as tyrosol): 16.8 ± 0.5% | Bioavailability in Caco-2 cells as percentage of initial amount in the test meal before in vitro digestion (bioaccessibility × absorption by Caco-2 cells) ([3]; from alperujo): 16.2 ± 0.6 ^a % | Bioavailability in Caco-2 cells as percentage of initial amount in the test meal before in vitro digestion (bioaccessibility × absorption by Caco-2 cells) ([3]; from alperujo, listed as tyrosol): 16.2 ± 0.6% | recovery at 6 h [4, 8]: 25.2 ± 1.3% | recovery at 6 h [4, 9]: ~22.9% | recovery at 6 h [4, 10]: ~100% | Basolateral amount as percentage of initial apical amount (Caco-2 transport) [4]: > 20% | Amount found in the cytosolic compartment of Caco-2 cells, percentage of the initial amount at the apical side ([1]; from alperujo): 1.6 ± 0.1% | Amount found in the cytosolic compartment of Caco-2 cells, percentage of the initial amount at the apical side ([1]; from alperujo-CD): 1.4 ± 0.1% | Metabolism in the intestinal cells [1]: no metabolism occurred | Higher bioaccessibility of Tyr than HT [5]: 16% | recovery [2, 7]: 83.7 ± 2.4% | recovery [2, 11]: ≥ 100%

O=C1C[C@@H](c2ccc(O)cc2)Oc2cc(O)cc(O)c21 [naringenin]
Improvement of absorption through the gut epithelium by hydroxypropyl-β-CD [6]: 11 fold

O=C(O)/C=C/c1ccc(O)cc1 [p-Cm, p-coumaric acid]
Bioavailability in Caco-2 cells as percentage of initial amount in the test meal before in vitro digestion (bioaccessibility × absorption by Caco-2 cells) ([3]; from alperujo-CD): 37.2 ± 3.2 ^a % | Bioavailability in Caco-2 cells as percentage of initial amount in the test meal before in vitro digestion (bioaccessibility × absorption by Caco-2 cells) ([3]; from alperujo-CD, listed as p-coumaric acid): 37.2 ± 3.2% | Bioavailability in Caco-2 cells as percentage of initial amount in the test meal before in vitro digestion (bioaccessibility × absorption by Caco-2 cells) ([3]; from alperujo): 32.0 ± 3.2 ^a % | Bioavailability in Caco-2 cells as percentage of initial amount in the test meal before in vitro digestion (bioaccessibility × absorption by Caco-2 cells) ([3]; from alperujo, listed as p-coumaric acid): 32.0 ± 3.2% | recovery at 6 h [4, 8]: 48.7 ± 2% | recovery at 6 h [4, 9]: 40.2 ± 4.1% | recovery at 6 h [4, 10]: ~100% | Basolateral amount as percentage of initial apical amount (Caco-2 transport) [4]: > 40% | Amount found in the cytosolic compartment of Caco-2 cells, percentage of the initial amount at the apical side ([1]; from alperujo): 1.6 ± 0.1% | Amount found in the cytosolic compartment of Caco-2 cells, percentage of the initial amount at the apical side ([1]; from alperujo-CD): 1.8 ± 0.2% | Metabolism in the intestinal cells [1]: no metabolism occurred | Improvement of local absorption by β-CD ([1]; alperujo-CD vs alperujo, p < 0.05): 8.5 ± 4.2% | Higher bioaccessibility of p-Cm than CA ([2]; in vitro digestion, final aqueous phase): 25% | recovery [2, 7]: > 87.9% | recovery [2, 11]: ≥ 100%

COc1cc(/C=C/C(=O)O)ccc1O [FA, Ferulic acid]
Bioavailability of FA (CA metabolite) in Caco-2 cells as percentage of initial amount in the test meal before in vitro digestion ([3]; from alperujo-CD): 10.0 ± 1.0 ^a % | Bioavailability of FA (CA metabolite) in Caco-2 cells as percentage of initial amount in the test meal before in vitro digestion ([3]; from alperujo): 8.9 ± 0.5 ^a % | FA at the basolateral side as percentage (CA equivalent) of the initial CA amount in the apical side ([1]; from alperujo-CD): 23.4 ± 2.2% and 23.4 ± 2.2 ^b % | FA at the basolateral side as percentage (CA equivalent) of the initial CA amount in the apical side ([1]; from alperujo): 18.8 ± 1.0% and 18.8 ± 1.0 ^a % | Absorption efficiency of FA through cell monolayers, percentage of the initial CA amount ([1]; alperujo and alperujo-CD): ~ 20%

Source: paper PMC6266305 (Nutrients, 2018)
